Patent publication US5597829A, “Lactone stable formulation of camptothecin and methods for uses thereof” (priority 1994, dated 1997)
Entries after “also recorded” stand apart in the source; their conditions may differ. Like-named read-outs stand apart in the source and are kept apart here.

Columns and labels:
[1] = cited from earlier work
[2] = carboxylate form; cited from earlier work
[3] = Oral absorption / bioavailability; type: in vivo; conditions: with taurocholic acid or salt in solution dosage composition
Excerpt: Taurocholic acid, a bile acid, may enhance in the intestinal absorption of the drug in certain patients. […] It is believed that this is due to the formation of a micellar solution of CPT on dilution thereof with the gastric contents.
Analogous to that of etoposide, it is believed that ingestion of the present dosage form of CPT and resulting dilution thereof by the stomach contents, results in the formation of a micellar solution of CPT in the stomach which is readily absorbed by the gastrointestinal tract.

[4] = Predicted outcome of administering lactone stable CPT to patients; type: in vivo, human
Excerpt: The novel features of the present invention include the following: (1) pharmaceutically acceptable formulations which allow the direct parenteral administration of lactone stable CPT to human subjects with cancer, (2) pharmaceutically acceptable formulations which allow the direct oral administration of lactone stable CPT to human subjects with cancer, and (3) dosages and schedules for the administration of lactone stable CPT to patients with cancer by parenteral and oral routes of administration. […] The inventors predict that by administering the carboxylate species of CPT a higher incidence of renal toxicity is observed than would be observed if the lactone species of CPT were administered.
Inventors claim that reason previous use of sodium CPT caused hemorrhagic cystitis relates to the enhanced renal excretion of the carboxylate form of CPT which when exposed to the lower pH (~pH 5) of the distal convoluted tubule in the kidney, the carboxylate form of CPT is converted to the lactone form of CPT. […] Elimination of CPT by the renal route is enhanced by administration of the carboxylate form and is reduced by administration of the lactone form.

LD1210 leukemia = conditions: 10-100 mg/kg intraperitoneally; cited from earlier work
[5] = system: Topoisomerase I purified from human colon carcinoma cells or calf thymus; conditions: cited from earlier work
DNA = conditions: in vitro cells; cited from earlier work
L1210 cells = conditions: cited from earlier work
[6] = system: topoisomerase I-cleaved DNA complex; conditions: cited from earlier work
[7] = pH below 7.0; cited from earlier work
[8] = cited from earlier work; remark: listed apart in the source
[9] = cited from earlier work; remark: listed apart in the source
[10] = human, in vivo; cited from earlier work
[11] = cited from earlier work; remark: listed apart in the source
malignant melanoma = conditions: cited from earlier work
[12] = 24 hours after, once daily ×5, 6.5-20 mg/m^2 /day; cited from earlier work
[13] = 5-day course (27 patients), 4 wks
[14] = 5-day course (27 patients), 8 wks
[15] = 5-day course (27 patients), 12 wks
[16] = 5-day course, 15 mg/m^2 × 5, 9 treated
[17] = 5-day course, 17 mg/m^2 × 5, 5 treated
[18] = 5-day course, 20 mg/m^2 × 5, 10 treated
[19] = single-dose (34 patients), 3 wks
[20] = single-dose (34 patients), 6 wks
[21] = single-dose (34 patients), 9 wks
[22] = single-dose (34 patients), 12 wks
[23] = single-dose, 110 mg/m^2, 2 treated
[24] = single-dose, 120 mg/m^2, 7 treated
[25] = single-dose, 180 mg/m^2, 9 treated

## CC[C@@]1(O)C(=O)OCc2c1cc1n(c2=O)Cc2cc3cc4c(cc3nc2-1)OCO4 [10,11 methylene dioxycamptothecin]
[1]
  solubility in water: relatively insoluble in water

## CC[C@@](O)(C(=O)O)c1cc2n(c(=O)c1CO)Cc1cc3ccccc3nc1-2 [carboxylate form of CPT]
[2]
  reduction of antitumor activity: at least 10 fold

## CC[C@@]1(O)C(=O)OCc2c1cc1n(c2=O)Cc2cc3ccccc3nc2-1 [CPT, camptothecin]
[3]
  absorption following ingestion: improved absorption of the drug following ingestion
[4]; oral or parenteral, lactone form, expected
  renal elimination of CPT: minimal
[4]; predicted
  frequency of hemorrhagic cystitis relative to sodium CPT: significantly reduced
LD1210 leukemia
  T/C (treated/control) ratios: superior T/C (treated/control) ratios relative to mice treated in the same manner with 7-ethyl camptothecin (ECPT) and 10-hydroxy 7-ethyl camptothecin (HECPT); also recorded: inferior to that of CPT-11 administration under the same conditions
[5]
  inhibition of topoisomerase I: inhibited
DNA
  nature of DNA strand breaks: Virtually all of the DNA strand breaks observed in vitro cells treated with CPT are protein linked
L1210 cells
  unexplained protein-free breaks: an increase in unexplained protein-free breaks can be detected
[6]
  stabilization of the cleavable complex: only the closed lactone form of the drug helps stabilize the cleavable complex
[7]
  form predominating: closed form of CPT predominates
[8]; human, in vivo
  cystitis as nonhematologic toxic effect: Cystitis was another toxic effect occurring frequently
  excretion: excreted unchanged by the kidneys
[9]; gastrointestinal cancer
  investigators' conclusion on toxicity and clinical value: a drug of protean and unpredictable toxicity that has no clinical value
[10]
  toxicity in clinical trials: unpredictable myelosuppression and hemorrhagic cystitis

## sodium salt of camptothecin [CPT sodium]
[11]; first 48 hours, iv
  mean urine recovery of CPT: 17.4%
  urine recovery of CPT, range: 3.6-38.9%
[11]; iv, 2880 min
  mean urine recovery of CPT excluding the 5 patients with impaired excretion: 22.8%
[11]; moderately dehydrated patients
  sterile hemorrhagic cystitis: 3 patients
[8]; doses of 20 to 30 mg/m^2
  Bladder toxicity, dose limiting: three
[8]; doses of 44 and 30 mg/m^2
  Bladder toxicity, additional patients: two
[8]; eight patients with measurable disease, 5-day courses
  clinical benefit: No clinical benefit was observed
[8]; human, in vivo
  cystitis as nonhematologic toxic effect: Cystitis was the most prominent nonhematologic toxic effect
  major dose-limiting toxic effect: Reversible leukopenia
[8]; total dose of 100 mg/m^2
  prolonged leukopenia after daily treatment: four
[8]; weekly courses
  clinical responses: two
[9]; 5-Day Course, P < 0.05
  Cystitis: 48 % of 27 Patients
[9]; [13]
  Objective results: Improved: 1 patients
  Objective results: Stable: 12 patients
  Objective results: Worse: 14 patients
[9]; [14]
  Objective results: Stable: 7 patients
  Objective results: Worse: 20 patients
[9]; [15]
  Objective results: Stable: 6 patients
  Objective results: Worse: 21 patients
[9]; 5-day course, 11 mg/m^2 × 5, 2 treated
  Cystitis, No. of Patients: 1 No. of Patients
[9]; [16]
  Cystitis, No. of Patients: 4 No. of Patients
  Diarrhea, No. of Patients: 1 No. of Patients
[9]; [17]
  Cystitis, No. of Patients: 2 No. of Patients
  Diarrhea, No. of Patients: 4 No. of Patients
[9]; [18]
  Cystitis, No. of Patients: 6 No. of Patients
  Diarrhea, No. of Patients: 4 No. of Patients
[9]; 5-day course, 22 mg/m^2 × 5, 1 treated
  Diarrhea, No. of Patients: 1 No. of Patients
[9]; Single Dose
  Cystitis: 24 % of 34 Patients
[9]; after 2 months (8 or 9 weeks), both large bowel cancer
  partial objective improvement: two
[9]; at 3 months, 61 patients
  improvement: none showed improvement
[9]; at 3 wks only
  25%-50% response: 3 patients
[9]; higher doses
  persistence of severe diarrhea: ≤ 4 weeks
[9]; human, in vivo
  onset of cystitis: 7 to 10 days
[9]; [19]
  Objective results: Improved: 4 patients
  Objective results: Stable: 17 patients
  Objective results: Worse: 13 patients
[9]; [20]
  Objective results: Improved: 2 patients
  Objective results: Stable: 11 patients
  Objective results: Worse: 21 patients
[9]; [21]
  Objective results: Improved: 2 patients
  Objective results: Stable: 8 patients
  Objective results: Worse: 24 patients
[9]; [22]
  Objective results: Stable: 6 patients
  Objective results: Worse: 28 patients
[9]; single-dose, 100 mg/m^2, 6 treated
  Cystitis, No. of Patients: 2 No. of Patients
[9]; [23]
  Cystitis, No. of Patients: 1 No. of Patients
  Diarrhea, No. of Patients: 1 No. of Patients
[9]; [24]
  Cystitis, No. of Patients: 2 No. of Patients
  Diarrhea, No. of Patients: 4 No. of Patients
[9]; [25]
  Cystitis, No. of Patients: 3 No. of Patients
  Diarrhea, No. of Patients: 2 No. of Patients
Malignant melanoma; 90-360 mg/m^2 every 2 weeks, fifteen patients
  50% or greater decrease in tumor diameter: None
Malignant melanoma; fifteen patients
  myelosuppression: 11 patients
Malignant melanoma; human, in vivo
  toxic effects: nausea and vomiting, alopecia, diarrhea, and hemorrhagic cystitis
Malignant melanoma; no clinical benefit, fifteen patients
  less pronounced transient tumor regression: three
[12]
  relation of plasma CPT levels to dose: little relation to the dose given
[10]
  toxicity in clinical trials: unpredictable and severe myelosuppression, gastrointestinal toxicity, hemorrhagic cystitis, and alopecia
